# Test results taken from patent publication US12441726B2, “Compounds and uses thereof” (Foghorn Therapeutics Inc., priority 2020, dated 2025).
# pIC50: −log10 of the molar value.
# Tests used:
# BRM = BRM (Homo sapiens, UniProt P51531); assay: ATPase catalytic activity assay (ADP-Glo), BRM; details: 30 nM BRM, 400 μM ATP; for IC50: BRM ATPase: IC50 (uM)
# Experimental: The ATPase catalytic activity of BRM or BRG-1 was measured by an in vitro biochemical assay using ADP-Glo™ (Promega, V9102). The ADP-Glo™ kinase assay is performed in two steps once the reaction is complete. The first step is to deplete any unconsumed ATP in the reaction. The second step is to convert the reaction product ADP to ATP, which will be utilized by the luciferase to generate luminesce and be detected by a luminescence reader, such as Envision.
# Then following addition of 5 μL of ADP-Glo™ Reagent provided in the kit, the reaction incubates at room temperature for 40 minutes. Then 10 μL of Kinase Detection Reagent provided in the kit is added to convert ADP to ATP, and the reaction incubates at room temperature for 60 minutes. Finally, luminescence measurement is collected with a plate-reading luminometer, such as Envision.
# BRG-1 = BRG-1 (Homo sapiens, UniProt P51532); assay: ATPase catalytic activity assay (ADP-Glo), BRG-1; details: for Emax: 1 h, read-out: BRG1 Max % Inhibition, ADP-Glo, 30 nM BRG-1, 400 μM ATP
# Sequence of BRG-1 (P51532 whole entry): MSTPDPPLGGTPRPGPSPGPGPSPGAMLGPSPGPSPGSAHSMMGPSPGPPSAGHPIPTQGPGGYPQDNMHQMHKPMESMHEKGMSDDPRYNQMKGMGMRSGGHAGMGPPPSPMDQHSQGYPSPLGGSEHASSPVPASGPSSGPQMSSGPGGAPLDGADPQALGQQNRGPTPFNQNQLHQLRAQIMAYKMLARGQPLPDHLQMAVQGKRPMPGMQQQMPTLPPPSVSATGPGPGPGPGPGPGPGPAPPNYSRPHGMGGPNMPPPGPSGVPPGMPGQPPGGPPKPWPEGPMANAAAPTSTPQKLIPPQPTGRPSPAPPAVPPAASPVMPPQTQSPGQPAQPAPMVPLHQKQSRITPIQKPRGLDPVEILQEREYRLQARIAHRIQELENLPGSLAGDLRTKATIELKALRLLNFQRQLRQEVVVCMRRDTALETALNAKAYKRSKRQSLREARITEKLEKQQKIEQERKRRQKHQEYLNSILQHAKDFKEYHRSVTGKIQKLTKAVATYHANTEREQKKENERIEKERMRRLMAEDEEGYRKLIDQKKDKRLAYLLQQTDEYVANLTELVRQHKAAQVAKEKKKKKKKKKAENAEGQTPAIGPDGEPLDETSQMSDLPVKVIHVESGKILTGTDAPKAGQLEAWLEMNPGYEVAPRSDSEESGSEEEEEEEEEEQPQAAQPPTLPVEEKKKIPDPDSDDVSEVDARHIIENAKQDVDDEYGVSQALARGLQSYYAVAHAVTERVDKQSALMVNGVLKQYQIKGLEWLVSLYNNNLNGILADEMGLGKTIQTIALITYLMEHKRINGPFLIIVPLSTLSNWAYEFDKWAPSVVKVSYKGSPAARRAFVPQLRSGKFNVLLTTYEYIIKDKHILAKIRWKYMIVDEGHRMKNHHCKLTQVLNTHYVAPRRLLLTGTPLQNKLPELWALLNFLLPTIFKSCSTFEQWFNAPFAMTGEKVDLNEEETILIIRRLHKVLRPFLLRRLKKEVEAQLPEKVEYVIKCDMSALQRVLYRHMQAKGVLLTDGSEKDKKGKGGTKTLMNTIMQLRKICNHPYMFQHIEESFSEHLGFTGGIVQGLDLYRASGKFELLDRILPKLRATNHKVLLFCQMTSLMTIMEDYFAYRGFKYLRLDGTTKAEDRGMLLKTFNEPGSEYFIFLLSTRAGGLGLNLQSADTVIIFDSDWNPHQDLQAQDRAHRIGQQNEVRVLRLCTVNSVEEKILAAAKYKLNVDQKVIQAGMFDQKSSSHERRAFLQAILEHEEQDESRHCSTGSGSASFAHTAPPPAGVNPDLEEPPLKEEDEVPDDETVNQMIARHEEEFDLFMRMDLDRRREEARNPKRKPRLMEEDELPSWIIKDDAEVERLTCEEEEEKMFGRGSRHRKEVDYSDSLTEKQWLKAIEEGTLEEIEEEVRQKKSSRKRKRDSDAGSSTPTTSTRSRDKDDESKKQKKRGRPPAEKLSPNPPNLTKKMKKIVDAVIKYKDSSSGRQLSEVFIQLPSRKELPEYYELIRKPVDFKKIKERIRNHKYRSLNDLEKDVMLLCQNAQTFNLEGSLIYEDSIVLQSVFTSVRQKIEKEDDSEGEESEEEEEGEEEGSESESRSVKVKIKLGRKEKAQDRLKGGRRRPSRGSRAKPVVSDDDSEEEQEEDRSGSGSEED
# Sequence of BRM (P51531 whole entry): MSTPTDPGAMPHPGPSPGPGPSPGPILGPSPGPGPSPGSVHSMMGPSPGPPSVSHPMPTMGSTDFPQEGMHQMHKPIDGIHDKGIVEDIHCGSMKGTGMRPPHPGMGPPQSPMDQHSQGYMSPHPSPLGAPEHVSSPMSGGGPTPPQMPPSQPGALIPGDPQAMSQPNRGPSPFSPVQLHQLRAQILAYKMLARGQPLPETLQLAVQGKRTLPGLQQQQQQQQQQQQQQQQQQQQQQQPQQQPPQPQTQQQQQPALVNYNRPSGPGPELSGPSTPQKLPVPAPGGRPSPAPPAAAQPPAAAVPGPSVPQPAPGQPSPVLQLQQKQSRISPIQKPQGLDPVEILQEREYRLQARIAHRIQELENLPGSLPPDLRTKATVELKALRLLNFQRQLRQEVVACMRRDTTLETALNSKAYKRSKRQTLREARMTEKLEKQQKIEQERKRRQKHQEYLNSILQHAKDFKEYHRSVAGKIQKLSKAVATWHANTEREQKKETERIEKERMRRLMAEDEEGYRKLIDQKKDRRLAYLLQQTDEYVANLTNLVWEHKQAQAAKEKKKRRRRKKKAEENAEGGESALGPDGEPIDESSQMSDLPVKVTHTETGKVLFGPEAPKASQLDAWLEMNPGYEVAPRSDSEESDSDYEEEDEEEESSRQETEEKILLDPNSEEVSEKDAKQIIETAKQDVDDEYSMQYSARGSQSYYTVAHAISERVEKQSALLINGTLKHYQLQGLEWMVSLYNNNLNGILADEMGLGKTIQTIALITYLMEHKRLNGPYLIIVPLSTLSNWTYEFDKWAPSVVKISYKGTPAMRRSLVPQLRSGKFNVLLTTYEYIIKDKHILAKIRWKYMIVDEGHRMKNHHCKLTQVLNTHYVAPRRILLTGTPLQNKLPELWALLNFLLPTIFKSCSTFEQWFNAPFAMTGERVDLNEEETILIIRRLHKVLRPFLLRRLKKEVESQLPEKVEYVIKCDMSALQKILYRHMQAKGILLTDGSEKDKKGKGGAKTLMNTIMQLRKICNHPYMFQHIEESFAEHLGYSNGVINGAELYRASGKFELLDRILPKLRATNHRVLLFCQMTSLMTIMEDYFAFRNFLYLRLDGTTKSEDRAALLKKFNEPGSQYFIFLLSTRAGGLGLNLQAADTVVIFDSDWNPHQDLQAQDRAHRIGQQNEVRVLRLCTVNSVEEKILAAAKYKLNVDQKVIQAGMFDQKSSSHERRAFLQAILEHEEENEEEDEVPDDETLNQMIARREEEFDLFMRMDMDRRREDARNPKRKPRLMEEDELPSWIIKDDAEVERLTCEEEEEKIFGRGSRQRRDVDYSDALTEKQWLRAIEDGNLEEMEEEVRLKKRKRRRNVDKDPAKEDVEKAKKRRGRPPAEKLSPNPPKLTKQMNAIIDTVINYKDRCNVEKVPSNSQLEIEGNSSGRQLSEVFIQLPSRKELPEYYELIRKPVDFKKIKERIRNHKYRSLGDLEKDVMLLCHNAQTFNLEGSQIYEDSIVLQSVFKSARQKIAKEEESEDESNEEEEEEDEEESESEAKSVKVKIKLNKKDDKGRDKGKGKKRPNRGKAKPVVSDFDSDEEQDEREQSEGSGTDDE
BRM Max % Inhibition (BRM),IC50 (BRM),pIC50 (BRG-1),Emax (BRG-1),Structure (SMILES)
84%,0.5 to 1 µM,< 6.00,33%,Cn1cc(-c2ccc3cnc(CNC(=O)c4ccc5c(c4)[C@](C)(C#N)COC5)cc3n2)cn1 [Compound 104]
93%,0.1 to 0.5 µM,6.00 to 6.30,66%,C[C@@]1(C#N)COCc2ccc(C(=O)NCc3cc4nc(-c5ccnc(C6CCOCC6)n5)ccc4cn3)cc21 [Compound 397]
93%,0.1 to 0.5 µM,< 6.00,56%,C[C@@]1(C#N)COCc2ccc(C(=O)NCc3cc4nc(-c5ccccn5)ccc4cn3)cc21 [Compound 102]
100%,< 0.1 µM,6.30 to 7.00,92%,O=C(NCc1cc2nc(-c3cncc(C4CC4)n3)ccc2cn1)c1cc(F)c2c(c1)[C@](F)(C(F)F)COC2 [Compound 237]
99%,< 0.1 µM,6.30 to 7.00,82%,C[C@@]1(C#N)COCc2ccc(C(=O)NCc3cc4c(cn3)CCN(c3cncc(N5CCC5)n3)C4)cc21 [Compound 298]
101%,< 0.1 µM,6.30 to 7.00,95%,C[C@@]1(C#N)COCc2ccc(C(=O)NCc3cc4cc(-c5cccc(N6CCC6)n5)ccc4nn3)cc21 [Compound 351]
96%,0.1 to 0.5 µM,6.00 to 6.30,72%,C[C@@]1(C#N)COCc2ccc(C(=O)NCc3cc4nc(-c5cc(F)cc(F)c5)ccc4cn3)cc21 [Compound 518]
94%,< 0.1 µM,6.30 to 7.00,91%,COc1ccc([C@H]2C[C@H](c3ccnc(CNC(=O)c4ccc5c(c4)[C@](C)(C#N)COC5)c3)C2)cc1 [Compound 72]
98%,< 0.1 µM,6.00 to 6.30,82%,C[C@@]1(C#N)COCc2ccc(C(=O)NCc3cc4nc(-c5ccccc5)cnc4cn3)cc21 [Compound 463]
96%,0.1 to 0.5 µM,6.00 to 6.30,75%,C[C@@]1(C#N)COCc2ccc(C(=O)NCc3cc4nc(-c5ccnc(C6COC6)n5)ccc4cn3)cc21 [Compound 158]
99%,< 0.1 µM,< 6.00,98%,C[C@@H]1CN(c2nccc(-c3ccc4cnc(CNC(=O)c5ccc6c(c5)[C@](C)(C#N)COC6)cc4n3)n2)CCO1 [Compound 362]
93%,< 0.1 µM,6.30 to 7.00,82%,C[C@@]1(C#N)COCc2ccc(C(=O)NCc3cc4nc(-c5cncc(N6CCC6)n5)sc4cn3)cc21 [Compound 353]
97%,0.1 to 0.5 µM,6.00 to 6.30,63%,O=C(NCc1cc2nc(-c3cncc(C4CC4)n3)ccc2cn1)c1cnc2c(c1)[C@](F)(C(F)F)CCO2 [Compound 241]
87%,0.1 to 0.5 µM,< 6.00,33%,C[C@]1(F)CCCc2ncc(C(=O)NCc3cc4nc(-c5cncc(C6CC6)n5)ccc4cn3)cc21 [Compound 252]
99%,< 0.1 µM,> 7.00,96%,C[C@@]1(F)COCc2ccc(C(=O)NCc3cc4nc(-c5ccnc(N6CC[C@@H]7COC[C@H]7C6)n5)ccc4cn3)cc21 [Compound 308]
104%,< 0.1 µM,> 7.00,99%,CO[C@H]1CCN(c2cncc(-c3ccc4cnc(CNC(=O)c5ccc6c(c5)[C@](C)(F)COC6)cc4c3)n2)C1 [Compound 265]
103%,< 0.1 µM,6.30 to 7.00,89%,C[C@@]1(F)COCc2ccc(C(=O)NCc3cc4nc(-c5cccc(N6CCCC6=O)n5)cnc4cn3)cc21 [Compound 143]
